Results as given in patent US20070092444A1, “Inhibition of inward sodium currents in cancer” (priority 2003, published 2007).

Columns and labels:
[1] = system: U251-MG brain tumors; test: Intracranial U251-MG xenograft in SCID mice; assay type: in vivo
Description: After sacrifice, brain tissue was removed, embedded with paraffin and sectioned (10 μm thick). Sections were stained using hemotoxylin and eosin. Magnifications are 1×, 4× and 20× as indicated.
In these studies, 10^6 U251-MG cells were injected directly into the right hemisphere of thirty SCID mice (FIGS. 27A-C). […] On sacrifice of the animals, the brain of each mouse was sectioned and stained with hemotoxylin and eosin. Do to the nature of the study, no difference in survival between the three groups was noted.

[2] = system: U87-MG cells; test: Transwell Migration Assay, U87-MG cells; assay type: cell-based, human; conditions: 3 h, vitronectin
[3] = biological target: T1, ASIC2 (Homo sapiens, UniProt Q16515); test: ASIC2 in planar lipid bilayers; assay type: biochemical
T1 sequence (Q16515 1-512): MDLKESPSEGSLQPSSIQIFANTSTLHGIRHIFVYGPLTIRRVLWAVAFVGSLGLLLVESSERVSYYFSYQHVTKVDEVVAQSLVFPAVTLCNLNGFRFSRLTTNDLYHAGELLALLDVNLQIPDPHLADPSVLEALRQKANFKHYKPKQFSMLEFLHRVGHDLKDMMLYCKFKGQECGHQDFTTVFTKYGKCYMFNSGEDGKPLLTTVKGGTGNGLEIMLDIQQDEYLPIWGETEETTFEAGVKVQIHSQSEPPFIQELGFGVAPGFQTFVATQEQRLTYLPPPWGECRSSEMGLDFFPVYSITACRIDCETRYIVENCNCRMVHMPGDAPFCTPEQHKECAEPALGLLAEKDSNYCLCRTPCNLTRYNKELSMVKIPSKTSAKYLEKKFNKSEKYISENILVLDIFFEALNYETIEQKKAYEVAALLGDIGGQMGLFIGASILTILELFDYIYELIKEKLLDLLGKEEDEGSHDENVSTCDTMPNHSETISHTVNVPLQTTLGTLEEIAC
Description: Membrane potential was held at −60 mV, and the pHo was step decreased to 4.0 for 10 s, and then returned to 7.4 for 30 s before repeating the sequence.

## Psalmotoxin 1 [PcTX1]
[1]; between the three groups
  survival: no difference
[1]; injection once a week for three weeks
  tumor foci within the injected hemisphere: one
[1]; injection once a week for three weeks, 20× the in vitro inhibitory dose, versus saline or scrambled peptide
  tumor margins: more clearly delineated
[2]
  diminished ability to migrate through the filter: > 90%
[3]
  block of inward currents: not ASIC2
